# Assay results taken from publication PMC3665789 (PLoS ONE, 2013).
# Like-named read-outs stand apart in the source and are kept apart here.
# Key:
# Lactobacillus strains = experiment: Vaginal Lactobacillus growth assay; type: cell-based; conditions: dose up to 120 µM; 24 h, OD600
# Procedure: Lactobacillus strains grown overnight to stationary phase (OD600 nm ∼1.8–2.0) were used as inocula for the assay. The assay was performed in 96-well microtiter plates. Sterile wells were filled with 200 µl MRS (de Man – Rogosa – Sharpe) medium (BD Biosciences). About 0.5×10^7 colony forming units or CFUs (1/100 of an overnight culture) were added and then 5-fold dilution series of different concentrations of the used compounds were administered. The plates were incubated without shaking for 24 h at 37°C. The OD600 nm was measured after 24 h and as a negative control, each strain was grown in medium without compound (Petrova et al., in preparation).
# [1] = tested on: HIV-1 ID12 (clinical isolate; R5); conditions: PBMCs; ID12, group M subtype A/E; p24 Ag ELISA
# HSV-2 wild-type = conditions: read-out: Median EC50; median over HSV-2 wild-type strains; HEL cells
# [2] = tested on: HSV-2 wild-type G (reference strain); conditions: HEL cells; HSV-2 G; CPE
# HIV-1 NL4.3^RALres. (X4) = conditions: read-out: EC50 (µM ± SEM); MT-4 cells; NL4.3 resistant to raltegravir (RAL); MTS/PES
# [3] = tested on: HIV-1 NL4.3^AMD3100res. (X4); conditions: read-out: EC50 (µM ± SEM); MT-4 cells; NL4.3 resistant to AMD3100; MTS/PES
# HIV-1 NL4.3^T20res. (X4) = conditions: read-out: EC50 (µM ± SEM); MT-4 cells; NL4.3 resistant to enfuvirtide (T20); MTS/PES
# [4] = Cytotoxicity assay (MTS/PES); type: cell-based, human; conditions: HEL cells, 3 days
# Procedure: Cytotoxicity in PBMCs (3 days), MT-4 (5 days), HUT-78 (1 day), C8166-(5 days), HEL (3 days) and Daudi cells (3 days) was measured using the MTS/PES method. The duration of the assays is given between brackets.
# HIV-1 BaL (R5) = conditions: read-out: EC50 (µM ± SEM), PBMCs, p24 Ag ELISA
# [5] = tested on: HIV-induced cell-cell syncytia formation (HUT-78/IIIB and SupT1 cells); experiment: Giant cell cocultivation assay (HUT-78/IIIB + SupT1); type: cell-based, HIV-1
# Procedure: The cocultivation experiments were performed as described previously. In brief, LabyA1 was diluted in cell culture medium and 100 µl was added in 96-well plate (BD, Falcon) along with the SupT1 T cells (1×10^5 cells/50 µl). The same amount of persistently HIV-infected HUT-78/IIIB cells were seeded and incubated at 37°C for 24 h. The next day, giant cell formation was scored microscopically and in addition the depletion of the CD4^+ SupT1 cells was measured by flow cytometry.
# The depletion of the target CD4^+ SupT1 T cells in the cocultivation assays was measured using PE-conjugated […] (BD Biosciences). The cells were incubated for 30 minutes at room temperature with anti-CD28-PE. After several washing steps, the cells were fixed with a 1% paraformaldehyde solution and analyzed by flow cytometry.
# HIV-1 NL4.3 (X4) = conditions: read-out: EC50 (µM ± SEM), MT-4 cells, MTS/PES method
# HSV-2 = experiment: Cellular binding experiment: pre-treatment of cells, compound removed, HSV-2 infection; type: cell-based; conditions: data not shown
# [6] = tested on: HSV-1 wild-type C559142 (clinical isolate); conditions: HEL cells; HSV-1 C559142; CPE
# HIV-2 ROD (R5/X4) = conditions: read-out: EC50 (µM ± SEM), PBMCs, p27 HIV-2 Ag ELISA
# [7] = tested on: HSV-1 TK^- RV-179 (clinical isolate); conditions: HEL cells, CPE
# [8] = tested on: HIV-1 DJ259 (clinical isolate; R5); conditions: PBMCs; DJ259, group M subtype C; p24 Ag ELISA
# HSV-1 TK^- = conditions: read-out: Median EC50; median over HSV-1 TK- strains; HEL cells
# HIV-1 NL4.3 = experiment: Pre-incubation of MT-4 cells with compound, wash, then HIV-1 NL4.3 infection; type: cell-based; conditions: MT-4 cells pre-incubated 2 h at 37°C, washed, infected with HIV-1 NL4.3; 5 days; control 100% CPE
# CD4 = molecular target: T1, CD4 (Homo sapiens, UniProt P01730); experiment: Anti-CD4 mAb binding on SupT1 cells (flow cytometry); conditions: SupT1 T cells; 9.6 µM or 1.9 µM
# T1 construct: endogenous in cells; host or cells: SupT1 T cells (ATCC)
# Procedure: To determine the interaction of LabyA1 with CD4, SupT1 cells (100 µl; 3×10^6 cells/ml) were incubated for 20 min at 4°C with 9.6 µM, 1.9 µM or 0 µM LabyA1. After extensive washing with PBS/FCS2% (PBS supplemented with 2% FCS), anti-CD4-PE conjugated mAbs RPA-T4 (eBioscience, Vienna, Austria), MT441 (Ancell, Enzo Life sciences) and OKT-4 (eBioscience) were added for 30 min at 4°C. For aspecific background staining, cells were incubated with SimulTest™ Control (IgGγ1-FITC/IgGγ2a-PE) (BD Biosciences). After washing, and fixation with 1% formaldehyde solution, samples were analyzed using the FACSCalibur and CellQuest software (BD Biosciences). The same protocol was applied for anti-CXCR4 evaluation using the fluorochrome conjugated mAbs 12G5-PE and 2B11-FITC (both BD Biosciences).
structure (smiles),measurement,setting,value
"C/C=C1\NC(=O)[C@H](Cc2ccccc2)NC(=O)[C@@H]2CCCN2C(=O)[C@H](C(C)C)NC(=O)[C@H](Cc2c[nH]c3ccccc23)NC(=O)[C@]23CSC[C@H](NC1=O)C(=O)N[C@H](C(=O)O)CSSC[C@H](NC(=O)[C@@H]1CSC[C@]4(C[C@H](N)C(=O)N[C@@H](CC(N)=O)C(=O)N[C@@H](C)C(=O)N4)C(=O)N[C@@H](C(C)C)C(=O)N[C@@H](Cc4c[nH]c5ccccc45)C(=O)N[C@@H](CCC(=O)O)C(=O)N1)C(=O)N[C@@H](C2)C(=O)N[C@@H]([C@@H](C)O)C(=O)NCC(=O)N3 [LabyA1, labyrinthopeptin A1]",growth inhibitory effects on Lactobacillus strains,Lactobacillus strains,no growth inhibitory effects were observed
same,EC50,[1],1200 ± 800 nM
same,EC50,HSV-2 wild-type,410 nM
same,EC50,[2],320 ± 50 nM
same,EC50,HIV-1 NL4.3^RALres. (X4),0.88 ± 0.08 µM
same,EC50,[3],2.4 ± 0.5 µM
same,EC50,HIV-1 NL4.3^T20res. (X4),2.3 ± 0.3 µM
same,CC50,[4],> 48000 nM
same,EC50,HIV-1 BaL (R5),3.3 ± 0.4 µM
same,activity in cell-cell fusion assay,"[5]; 0.96 µM, light microscopy",no activity was observed
same,giant cell formation,"[5]; 4.8 µM, light microscopy",some giant cells were formed
same,giant cell formation,"[5]; 24 µM, light microscopy",completely inhibited
same,EC50,"[5]; 24 h coculture, CD28 flow cytometry, read-out: EC50, survival of SupT1 T cells in coculture with HUT-78/IIIB cells",2500 nM
same,EC50,"HIV-1 clinical isolates; read-out: EC50 range, range over 9 HIV-1 clinical isolates in PBMCs",700 to 1900 nM
same,EC50,"HIV-1 clinical isolates; read-out: Median EC50, median over 9 HIV-1 clinical isolates in PBMCs",1000 nM
same,EC50,HIV-1 NL4.3 (X4),1.7 ± 0.4 µM
same,inhibition of HSV-2 replication after pre-treatment of cells for 1 h and removal of compound,HSV-2,lost its ability to inhibit HSV-2 replication
same,EC50,[6],450 ± 20 nM
same,EC50,HIV-2 ROD (R5/X4),1 ± 0.3 µM
same,EC50,[7],1900 ± 300 nM
same,EC50,[8],940 ± 430 nM
same,EC50,HSV-1 TK^-,1900 nM
same,% CPE after pre-incubation of cells and removal of compound,HIV-1 NL4.3,96.8±3.2 % CPE
same,"effect on binding of anti-CD4 mAbs RPA-T4, MT441 and OKT4",CD4,no effect
